{"source": "patent US7109193B2", "about": "“Tricyclic diazepines tocolytic oxytocin receptor antagonists” (Wyeth, priority 2001, dated 2006)", "target": "T1, human vasopressin V2 receptor subtype (Homo sapiens, UniProt P30518)", "T1 construct": "host or cells: CHO cells (pZeoSV vector)", "T1 sequence (P30518 whole entry)": "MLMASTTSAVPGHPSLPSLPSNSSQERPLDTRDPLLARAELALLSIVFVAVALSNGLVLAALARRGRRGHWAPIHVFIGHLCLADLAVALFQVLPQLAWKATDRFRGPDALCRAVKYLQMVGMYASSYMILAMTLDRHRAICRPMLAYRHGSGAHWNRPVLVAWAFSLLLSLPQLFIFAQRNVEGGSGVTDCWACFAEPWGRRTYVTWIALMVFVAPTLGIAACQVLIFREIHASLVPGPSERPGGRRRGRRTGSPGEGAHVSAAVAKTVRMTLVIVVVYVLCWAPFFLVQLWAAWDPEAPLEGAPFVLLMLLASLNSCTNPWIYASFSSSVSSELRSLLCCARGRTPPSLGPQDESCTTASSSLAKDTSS", "assay": "Vasopressin binding in Chinese Hamster Ovary cell membranes expressing human vasopressin V2 subtype receptors", "conditions": "CHO cell membranes, [3H]arginine vasopressin; for IC50: values in parentheses; for inhibition at 0.1 µM: 100 nM, values without parentheses", "procedure,_shortened": "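Radioligand displacement on membranes from CHO cells stably expressing human V2 receptor, 25 to 50 μg protein/well, in 50 mM Tris-HCl pH 7.4 with MgCl2, BSA and protease inhibitors. [^3H]arginine vasopressin (8 nM working solution) incubated 60 min at room temperature; bound label measured by filtration and scintillation counting.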", "note": "Where a name gives a salt, the structure may show the parent alone."}
{"smiles": "COc1cc(-c2ccccc2C)ccc1C(=O)N1Cc2ccc(C(=O)N(C)CCCN(C)C)n2Cc2ccccc21", "note": "[Example 11, N-Methyl-N-[3-(dimethylamino)propyl]-10-[(3-methoxy-2′-methyl[1,1′-biphenyl]-4-yl)carbonyl]-10,11-dihydro-5H-pyrrolo[2,1-c][1,4]benzodiazepine-3-carboxamide]", "values": [{"measurement": "IC50", "result": 1.35, "unit": "µM"}]}
{"smiles": "Cc1ccc(-c2ccc(C(=O)N3Cc4cccn4Cc4ccccc43)cc2)c2ccccc12", "note": "[Example 25, [4-(4-Methyl-naphthalen-1-yl)phenyl][10,11-dihydro-5H-pyrrolo[2,1-c][1,4]benzodiazepin-10-yl]methanone]", "values": [{"measurement": "IC50", "result": 0.0113, "unit": "µM"}]}
{"smiles": "COc1cccc(-c2cc(OC)c(C(=O)N3Cc4ccc(C(=O)N(C)CCCN(C)C)n4Cc4ccccc43)cc2Cl)c1", "note": "[Example 99, 10-[(6-Chloro-3,3′-dimethoxy[1,1′-biphenyl]-4-yl)carbonyl]-N-[3-(dimethylamino)propyl]-N-methyl-10,11-dihydro-5H-pyrrolo[2,1-c][1,4]benzodiazepine-3-carboxamide]", "values": [{"measurement": "IC50", "result": 1.33, "unit": "µM"}]}
{"smiles": "Cc1cc(C(=O)N2Cc3ccc(C(=O)N4CCNCC4)n3Cc3ccccc32)ccc1-c1ccccc1C(F)(F)F", "note": "[Example 7, 10,11-Dihydro-10-[[2-methyl-2′-trifluoromethyl-[1,1′-biphenyl]-4-yl]carbonyl]-3-(1-piperazinylcarbonyl)-5H-pyrrolo[2,1-c][1,4]benzodiazepine hydrochloride salt]", "values": [{"measurement": "IC50", "result": 2.46, "unit": "µM"}]}
{"smiles": "COc1ccccc1-c1ccc(C(=O)N2Cc3ccc(C(=O)N4CCC(N5CCCCC5)CC4)n3Cc3ccccc32)cc1", "note": "[Example 111, {10-[(2′-Methoxy[1,1′-biphenyl]-4-yl)carbonyl]-10,11-dihydro-5H-pyrrolo[2,1-c][1,4]benzodiazepin-3-yl}[4-(1-piperidinyl)-1-piperidinyl]methanone]", "values": [{"measurement": "IC50", "result": 0.772, "unit": "µM"}]}
{"smiles": "COc1ccccc1-c1ccc(C(=O)N2Cc3ccc(C(=O)N(C)CCN(C)C)n3Cc3ccccc32)cc1C", "note": "[Example 88, N-[2-(Dimethylamino)ethyl]-10-[(2′-methoxy-2-methyl[1,1′-biphenyl]-4-yl)carbonyl]-N-methyl-10,11-dihydro-5H-pyrrolo[2,1-c][1,4]benzodiazepine-3-carboxamide]", "values": [{"measurement": "inhibition at 0.1 µM", "result": 30, "unit": "%"}]}
{"smiles": "COc1cccc(-c2ccc(C(=O)N3Cc4ccc(C(=O)N(C)CCN(C)C)n4Cc4ccccc43)cc2C)c1", "note": "[Example 89, N-[2-(Dimethylamino)ethyl]-10-[(3′-methoxy-2-methyl[1,1′-biphenyl]-4-yl)carbonyl]-N-methyl-10,11-dihydro-5H-pyrrolo[2,1-c][1,4]benzodiazepine-3-carboxamide]", "values": [{"measurement": "inhibition at 0.1 µM", "result": 13, "unit": "%"}]}
{"smiles": "COc1ccccc1-c1ccc(C(=O)N2Cc3ccc(C(=O)N4CCN(CCN5CCOCC5)CC4)n3Cc3ccccc32)cc1C", "note": "[Example 206, {10-[(2′-Methoxy-2-methyl[1,1′-biphenyl]-4-yl)carbonyl]-10,11-dihydro-5H-pyrrolo[2,1-c][1,4]benzodiazepin-3-yl}{4-[2-(4-morpholinyl)ethyl]-1-piperazinyl}methanone]", "values": [{"measurement": "IC50", "result": 0.19, "unit": "µM"}]}
{"smiles": "COc1cc(-c2ccccc2Cl)c(Cl)cc1C(=O)N1Cc2ccc(C(=O)N(C)C3CCN(C)CC3)n2Cc2ccccc21", "note": "[Example 43, 10-[(2′-Chloro-6-chloro-3-methoxy-[1,1′-biphenyl]-4-yl)carbonyl]-N-methyl-N-(1-methylpiperidin-4-yl)-10,11-dihydro-5H-pyrrolo[2,1-c][1,4]benzodiazepine-3-carboxamide]", "values": [{"measurement": "IC50", "result": 0.409, "unit": "µM"}]}
{"smiles": "COc1ccccc1-c1ccc(C(=O)N2Cc3ccc(C(=O)N4CCN(CCCN(C)C)CC4)n3Cc3ccccc32)cc1C", "note": "[Example 245, {4-[3-(Dimethylamino)propyl]-1-piperazinyl}{10-[(2′-methoxy-2-methyl[1,1′-biphenyl]-4-yl)carbonyl]-10,11-dihydro-5H-pyrrolo[2,1-c][1,4]benzodiazepin-3-yl}methanone]", "values": [{"measurement": "IC50", "result": 0.423, "unit": "µM"}]}
{"smiles": "Cc1cc(C(=O)N2Cc3ccc(C(=O)N4CCN(C)CC4)n3Cc3ccccc32)ccc1-c1ccccc1C(F)(F)F", "note": "[Example 2, (4-Methyl-piperazin-1-yl)-[10-(2-methyl-2′-trifluoromethyl-[1,1′-biphenyl]-4-yl)-carbonyl]-10,11-dihydro-5H-pyrrolo[2,1-c][1,4]benzodiazepin-3-yl-methanone]", "values": [{"measurement": "IC50", "result": 1.76, "unit": "µM"}]}
{"smiles": "Cc1ccccc1-c1ccc(C(=O)N2Cc3ccc(C(=O)N(C)CCCN(C)C)n3Cc3ccccc32)cc1", "note": "[Example 104, N-[3-(Dimethylamino)propyl]-N-methyl-10-[(2′-methyl[1,1′-biphenyl]-4-yl)carbonyl]-10,11-dihydro-5H-pyrrolo[2,1-c][1,4]benzodiazepine-3-carboxamide]", "values": [{"measurement": "inhibition at 0.1 µM", "result": 20, "unit": "%"}]}
{"smiles": "COc1cccc(-c2cc(OC)c(C(=O)N3Cc4ccc(C(=O)NCCCN(C)C)n4Cc4ccccc43)cc2Cl)c1", "note": "[Example 79, 10-[(6-Chloro-3,3′-dimethoxy[1,1′-biphenyl]-4-yl)carbonyl]-N-[3-(dimethylamino)propyl]-10,11-dihydro-5H-pyrrolo[2,1-c][1,4]benzodiazepine-3-carboxamide]", "values": [{"measurement": "inhibition at 0.1 µM", "result": 7, "unit": "%"}]}
{"smiles": "O=C(c1ccc(-c2cccc3ccccc23)cc1Cl)N1Cc2cccn2Cc2ccccc21", "note": "[Example 24, [2-Chloro-4-(naphthalen-1-yl)phenyl][10,11-dihydro-5H-pyrrolo[2,1-c][1,4]benzodiazepin-10-yl]methanone]", "values": [{"measurement": "IC50", "result": 0.0047, "unit": "µM"}]}
{"smiles": "COc1cccc(-c2ccc(C(=O)N3Cc4ccc(C(=O)NCCCN(C)C)n4Cc4ccccc43)cc2OC)c1", "note": "[Example 82, 10-[(2,3′-Dimethoxy[1,1′-biphenyl]-4-yl)carbonyl]-N-[3-(dimethylamino)propyl]-10,11-dihydro-5H-pyrrolo[2,1-c][1,4]benzodiazepine-3-carboxamide]", "values": [{"measurement": "inhibition at 0.1 µM", "result": 10, "unit": "%"}]}
{"smiles": "COc1cc(C(=O)N2Cc3ccc(C(=O)N(C)CCCN(C)C)n3Cc3ccccc32)ccc1-c1ccccc1C", "note": "[Example 105, N-[3-(Dimethylamino)propyl]-10-[(2-methoxy-2′-methyl[1,1′-biphenyl]-4-yl)carbonyl]-N-methyl-10,11-dihydro-5H-pyrrolo[2,1-c][1,4]benzodiazepine-3-carboxamide]", "values": [{"measurement": "inhibition at 0.1 µM", "result": 18, "unit": "%"}]}
{"smiles": "Cc1ccccc1-c1ccc(C(=O)N2Cc3ccc(C(=O)N(C)CCN(C)C)n3Cc3ccccc32)cc1", "note": "[Example 91, N-[2-(Dimethylamino)ethyl]-N-methyl-10-[(2′-methyl[1,1′-biphenyl]-4-yl)carbonyl]-10,11-dihydro-5H-pyrrolo[2,1-c][1,4]benzodiazepine-3-carboxamide]", "values": [{"measurement": "inhibition at 0.1 µM", "result": 17, "unit": "%"}]}
{"smiles": "COc1ccccc1-c1ccc(C(=O)N2Cc3ccc(C(=O)N4CCN(CCN(C)C)CC4)n3Cc3ccccc32)cc1C", "note": "[Example 195, {4-[2-(Dimethylamino)ethyl]-1-piperazinyl}{10-[(2′-methoxy-2-methyl[1,1′-biphenyl]-4-yl)carbonyl]-10,11-dihydro-5H-pyrrolo[2,1-c][1,4]benzodiazepin-3-yl}methanone]", "values": [{"measurement": "IC50", "result": 0.298, "unit": "µM"}]}
{"smiles": "COc1cc(C(=O)N2Cc3ccc(C(=O)NCCCN(C)C)n3Cc3ccccc32)ccc1-c1cccc2ccccc12", "note": "[Example 80, N-[3-(Dimethylamino)propyl]-10-[3-methoxy-4-(1-naphthyl)benzoyl]-10,11-dihydro-5H-pyrrolo[2,1-c][1,4]benzodiazepine-3-carboxamide]", "values": [{"measurement": "inhibition at 0.1 µM", "result": 43, "unit": "%"}]}
